Data: patent US20240228489A1, “POSITIVE ALLOSTERIC MODULATORS OF THE MUSCARINIC ACETYLCHOLINE RECEPTOR M1” (Vanderbilt University, priority 2021, published 2024)

How the values were obtained:
human mAChR M1 [1] = molecular target: T1, human mAChR M1 (Homo sapiens, UniProt P11229); experiment: mAChR M1 cell-based functional assay (calcium mobilization), PAM mode: increase in the EC20 acetylcholine response
T1 sequence (P11229 1-460): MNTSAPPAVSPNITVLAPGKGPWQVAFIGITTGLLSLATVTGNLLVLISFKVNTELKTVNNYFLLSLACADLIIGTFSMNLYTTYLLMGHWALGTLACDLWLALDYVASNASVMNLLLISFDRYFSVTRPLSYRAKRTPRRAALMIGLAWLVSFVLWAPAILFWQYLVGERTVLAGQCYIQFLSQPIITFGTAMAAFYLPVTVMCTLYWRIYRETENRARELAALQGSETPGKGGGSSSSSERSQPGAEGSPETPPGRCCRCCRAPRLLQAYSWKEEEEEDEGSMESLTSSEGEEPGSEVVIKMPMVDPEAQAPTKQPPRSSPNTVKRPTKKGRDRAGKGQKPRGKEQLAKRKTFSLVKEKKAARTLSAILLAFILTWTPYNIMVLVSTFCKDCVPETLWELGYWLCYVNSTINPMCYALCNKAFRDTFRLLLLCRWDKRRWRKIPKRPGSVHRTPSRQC
Source text: (§1) Chinese hamster ovary (CHO-K1) cells stably expressing rat (r)M1 were purchased from the American Type Culture Collection and cultured according to their indicated protocol. CHO cells stably expressing human (h)M2, hM3, and hM5 were described previously (Levey, et al., 1991); hM1 and hM4 cDNAs were purchased from Missouri S&T cDNA Resource; rM4 cDNA was provided by T. I. Bonner (National Institutes of Health, Bethesda, MD). rM2 and rM3 were cloned from a rat brain cDNA library and sequence verified. hM1, rM2, rM3, hM4, and rM4 cDNAs were used to stably transfect CHO-K1 cells purchased from the American Type Culture Collection using Lipofectamine2000. To make stable rM2, hM2, rM3, hM4, and rM4 cell lines for use in calcium mobilization assays, these cells also were stably transfected with a chimeric G-protein (Gqi5) (provided by B. R. Conklin, University of California, San Francisco) using Lipofectamine 2000. rM1, hM1, rM3, hM3, rM5, and hM5 cells were grown in Ham's F-12 medium containing 10% heat-inactivated fetal bovine serum (FBS), 20 mM HEPES, and 50 μg/mL G418 sulfate. rM2-Gqi5, hM2-Gqi5, and hM4-Gqi5 cells were grown in the same medium also containing 500 μg/mL Hygromycin B. Stable rM4-Gqi5 cells were grown in DMEM containing 10% heat-inactivated FBS, 20 mM HEPES, 400 μg/mL G418 sulfate, and 500 μg/mL Hygromycin B.
(§2) For high throughput measurement of agonist-evoked increases in intracellular calcium, CHO-K1 cells stably expressing muscarinic receptors were plated in growth medium lacking G418 and hygromycin at 15,000 cells/20 μL/well in Greiner 384-well black-walled, tissue culture (TC)-treated, clear-bottom plates (VWR). Cells were incubated overnight at 37° C. and 5% C02. The next day, cells were washed using an ELX 405 (BioTek) with four washes (80 μL) of assay buffer then aspirated to 20 μL. Next, 20 μL of 16 μM Fluo-4/acetoxymethyl ester (Invitrogen, Carlsbad, CA) prepared as a 2.3 mM stock in DMSO and mixed in a 1:1 ratio with 10% (w/v) Pluronic F-127 and diluted in assay buffer was added to the wells and the cell plates were incubated for 50 min at 37° C. and 5% C02. Dye was removed by washing with the ELX 405 (four 80 μL washes of assay buffer) then aspirated to 20 μL. Compound master plates were formatted in an 11 point CRC format (1:3 dilutions) in 100% DMSO with a starting concentration of 10 mM using the BRAVO liquid handler (Agilent). Test compound CRCs were then transferred to daughter plates (240 nL) using the Echo acoustic plate reformatter (Labcyte, Sunnyvale, CA) and then diluted into assay buffer (40 μL) to a 2× stock using a Thermo Fisher Combi (Thermo Fisher Scientific, Waltham, MA).
Calcium flux was measured using the Functional Drug Screening System (FDSS) 6000 (Hamamatsu Corporation, Tokyo, Japan) as an increase in the fluorescent static ratio. Compounds were applied to cells (20 μL, 2×) using the automated system of the FDSS 6000 at 4 s into the 300 s protocol and the data were collected at 1 Hz. At 144 s into the 300 s protocol, 10 μL of an EC20 concentration of the muscarinic receptor agonist acetylcholine was added (5×), followed by the addition of 12 μL of an EC80 concentration of acetylcholine at the 230 s time point (5×). Agonist activity was analyzed as a concentration-dependent increase in calcium mobilization upon compound addition. Emax values for agonist activity are expressed relative to the maximum for acetylcholine. Positive allosteric modulator activity was analyzed as a concentration-dependent increase in the EC20 acetylcholine response. Antagonist activity was analyzed as a concentration-dependent decrease in the EC80 acetylcholine response. Concentration-response curves were generated using a four-parameter logistical equation in XLfit curve fitting software (IDBS, Bridgewater, NJ) for Excel (Microsoft, Redmond, WA) or Prism (GraphPad Software, Inc., San Diego, CA). […]

human mAChR M1 [2] = molecular target: T1, human mAChR M1; experiment: mAChR M1 cell-based functional assay (calcium mobilization), agonist mode: compound alone, Emax relative to acetylcholine maximum; settings: for Agonist Activity Human M1 EC50 / EC50: human mAChR M1; for Emax: relative to the maximum for acetylcholine
Source text: as §1, §2
Calcium flux was measured using the Functional Drug Screening System (FDSS) 6000 (Hamamatsu Corporation, Tokyo, Japan) as an increase in the fluorescent static ratio. Compounds were applied to cells (20 μL, 2×) using the automated system of the FDSS 6000 at 4 s into the 300 s protocol and the data were collected at 1 Hz. At 144 s into the 300 s protocol, 10 μL of an EC20 concentration of the muscarinic receptor agonist acetylcholine was added (5×), followed by the addition of 12 μL of an EC80 concentration of acetylcholine at the 230 s time point (5×). Agonist activity was analyzed as a concentration-dependent increase in calcium mobilization upon compound addition. Emax values for agonist activity are expressed relative to the maximum for acetylcholine. Positive allosteric modulator activity was analyzed as a concentration-dependent increase in the EC20 acetylcholine response. Antagonist activity was analyzed as a concentration-dependent decrease in the EC80 acetylcholine response. Concentration-response curves were generated using a four-parameter logistical equation in XLfit curve fitting software (IDBS, Bridgewater, NJ) for Excel (Microsoft, Redmond, WA) or Prism (GraphPad Software, Inc., San Diego, CA).

EC50 (human mAChR M1 [1]) [nM]	Emax (human mAChR M1 [1]) [%]	Agonist Activity Human M1 EC50 (human mAChR M1 [2])	Emax (human mAChR M1 [2]) [%]	EC50 (human mAChR M1 [2]) [nM]	SMILES
604	65	Inactive	2		[2H]C1([2H])c2ncccc2C(=O)N1Cc1c(F)cc(-c2ccc(C(F)(F)F)c3nn(C)cc23)cc1F [Compound 41, 6-(2,6-difluoro-4-(2-methyl-7-(trifluoromethyl)-2H-indazol-4-yl)benzyl)-6,7-dihydro-5H-pyrrolo[3,4-b]pyridin-5-one-7,7-d2]
> 10000	64	Inactive	2		[2H]C1([2H])c2ncccc2C(=O)N1Cc1c(F)cc(-c2ccc(F)c3c2cnn3C([2H])([2H])[2H])cc1F [Compound 68, 6-(2,6-difluoro-4-(7-fluoro-1-(methyl-d3)-1H-indazol-4-yl)benzyl)-6,7-dihydro-5H-pyrrolo[3,4-b]pyridin-5-one-7,7-d2]
1400	72	Inactive	3		[2H]C([2H])([2H])Oc1ccc(-c2cc(F)c(CN3C(=O)c4cccnc4C3([2H])[2H])c(F)c2)c2cnn(C([2H])([2H])[2H])c12 [Compound 95, 6-(2,6-difluoro-4-(7-(methoxy-d3)-1-(methyl-d3)-1H-indazol-4-yl)benzyl)-6,7-dihydro-5H-pyrrolo[3,4-b]pyridin-5-one-7,7-d2]
354	82		27	≥ 10000	[2H]C1([2H])c2ncccc2C(=O)N1Cc1c(F)cc(-c2ccc(OC[C@@H](C)OC)c3nn(C)cc23)cc1F [Compound 172, (R)-6-(2,6-difluoro-4-(7-(2-methoxypropoxy)-2-methyl-2H-indazol-4-yl)benzyl)-6,7-dihydro-5H-pyrrolo[3,4-b]pyridin-5-one-7,7-d2]
1550	73	Inactive	2		[2H]C1([2H])c2ncccc2C(=O)N1Cc1c(F)cc(-c2ccc(OC(F)(F)F)c3nn(C)cc23)cc1F [Compound 103, 6-(2,6-difluoro-4-(2-methyl-7-(trifluoromethoxy)-2H-indazol-4-yl)benzyl)-6,7-dihydro-5H-pyrrolo[3,4-b]pyridin-5-one-7,7-d2]
391	72		15	7230	[2H]C1([2H])c2ncccc2C(=O)N1Cc1c(F)cc(-c2ccc(OCS(C)(=O)=O)c3nn(C)cc23)cc1F [Compound 186, 6-(2,6-difluoro-4-(2-methyl-7-((methylsulfonyl)methoxy)-2H-indazol-4-yl)benzyl)-6,7-dihydro-5H-pyrrolo[3,4-b]pyridin-5-one-7,7-d2]

The next lines start with the molecule.

SMILES	EC50 (human mAChR M1 [1]) [nM]	Emax (human mAChR M1 [1]) [%]	Agonist Activity Human M1 EC50 (human mAChR M1 [2])	Emax (human mAChR M1 [2]) [%]	EC50 (human mAChR M1 [2]) [nM]
[2H]C1([2H])c2ncccc2C(=O)N1Cc1ccc(-c2cc(F)cc3nn(C)cc23)cc1F [Compound 71, 6-(2-fluoro-4-(6-fluoro-2-methyl-2H-indazol-4-yl)benzyl)-6,7-dihydro-5H-pyrrolo[3,4-b]pyridin-5-one-7,7-d2]	698	75	Inactive	1	
[2H]C1([2H])c2ncccc2C(=O)N1Cc1c(F)cc(-c2ccc(OC3CC3)c3nn(C)cc23)cc1Cl [Compound 169, 6-(2-chloro-4-(7-cyclopropoxy-2-methyl-2H-indazol-4-yl)-6-fluorobenzyl)-6,7-dihydro-5H-pyrrolo[3,4-b]pyridin-5-one-7,7-d2]	630	81	Inactive	7	
[2H]C1([2H])c2ncccc2C(=O)N1Cc1ccc(-c2ccc(OC(C)C)c3nn(C)cc23)cc1F [Compound 109, 6-(2-fluoro-4-(7-isopropoxy-2-methyl-2H-indazol-4-yl)benzyl)-6,7-dihydro-5H-pyrrolo[3,4-b]pyridin-5-one-7,7-d2]	167	73		17	5430
[2H]C1([2H])c2ncccc2C(=O)N1Cc1ccc(-c2ccc(OCCOC)c3nn(C([2H])([2H])[2H])cc23)cc1F [Compound 117, 6-(2-fluoro-4-(7-(2-methoxyethoxy)-2-(methyl-d3)-2H-indazol-4-yl)benzyl)-6,7-dihydro-5H-pyrrolo[3,4-b]pyridin-5-one-7,7-d2]	317	70		21	≥ 10000
[2H]C1([2H])c2ncccc2C(=O)N1Cc1ccc(-c2ccc(OC)c3nn(C([2H])([2H])[2H])cc23)cc1F [Compound 55, 6-(2-fluoro-4-(7-methoxy-2-(methyl-d3)-2H-indazol-4-yl)benzyl)-6,7-dihydro-5H-pyrrolo[3,4-b]pyridin-5-one-7,7-d2]	275	88	Inactive	7	
[2H]C1([2H])c2ncccc2C(=O)N1Cc1c(F)cc(-c2ccc(OCCOC)c3nn(C)cc23)cc1Cl [Compound 170, 6-(2-chloro-6-fluoro-4-(7-(2-methoxyethoxy)-2-methyl-2H-indazol-4-yl)benzyl)-6,7-dihydro-5H-pyrrolo[3,4-b]pyridin-5-one-7,7-d2]	322	81	Inactive	9	
[2H]C1([2H])c2ncccc2C(=O)N1Cc1ccc(-c2cc3cn(C)nc3cc2C)cc1 [Compound 16, 6-(4-(2,6-dimethyl-2H-indazol-5-yl)benzyl)-6,7-dihydro-5H-pyrrolo[3,4-b]pyridin-5-one-7,7-d2]	> 10000	55	Inactive	3	
[2H]C1([2H])c2ncccc2C(=O)N1Cc1c(F)cc(-c2ccc(O[C@H]3CCOC3)c3nn(C)cc23)cc1F [Compound 136, (S)-6-(2,6-difluoro-4-(2-methyl-7-((tetrahydrofuran-3-yl)oxy)-2H-indazol-4-yl)benzyl)-6,7-dihydro-5H-pyrrolo[3,4-b]pyridin-5-one-7,7-d2]	245	74		28	8420
